Values belong to the compound of their own block, whether it stands above or below them.
Tests used:
[1] = Competitive slurries of anhydrous Form 1 and hydrate in water/methanol mixtures, stable form determined by DSC; format: physicochemical; parameters: key to stable crystal form: A indicates the anhydrous form is the stable form; H indicates the hydrate is the stable form; U data was inconclusive
Procedure: DSC was carried out using a Mettler Toledo DSC 820 or DSC1. A sample loading of around 5 mg was used and this was heated from 40° C. to 250° C. at a rate of 10° C./minute on the DSC820 or from 25° C. to 250° C. at a rate of 10° C./minute on the DSC1. The lid of the DSC crucible was pierced to allow the escape of any gas formed during the heating of the sample. The thermodynamic stability of hydrated crystals depends not only on temperature but also on the abundance of water, or more precisely, the water activity (aw), which is equivalent to the relative humidity. In order to determine under which conditions the anhydrous polymorph Form 1 and the hydrate are stable, a series of competitive slurries containing both crystal forms were prepared in different water/methanol mixtures and at a range of temperatures. The resulting crystals were analysed by DSC to determine the stable form under the given conditions. […] From the data above, the water/methanol compositions were converted into water activities and a phase diagram was constructed.

[2] = Stability of suspension concentrate formulation of anhydrous Form 1 contaminated with 5% hydrated form, temperature cycling; format: physicochemical; conditions: SC of anhydrous Form 1 with 5% hydrated form, cycling 0° C. to 40° C. over 12 hours, after two weeks
Procedure: Two standard suspension concentrate (SC) formulations were separately prepared using the anhydrous Form 1 polymorph and the hydrated polymorph. The SC of the anhydrous Form 1 was contaminated with 5% of the hydrated form and placed in a temperature cycling oven varying from 0° C. to 40° C. over 12 hours. After two weeks, the sample was inspected. […] Some crystals were removed from the formulation and dried.

stable crystal form ([1]; 1% water in methanol, 5 °C): A | stable crystal form ([1]; 1% water in methanol, 20 °C): A | stable crystal form ([1]; 1% water in methanol, 35 °C): A | stable crystal form ([1]; 1% water in methanol, 40 °C): A | stable crystal form ([1]; 1% water in methanol, 45 °C): A | stable crystal form ([1]; 1% water in methanol, 60 °C): A | stable crystal form ([1]; 5% water in methanol, 5 °C): A | stable crystal form ([1]; 5% water in methanol, 20 °C): A | stable crystal form ([1]; 5% water in methanol, 35 °C): A | stable crystal form ([1]; 5% water in methanol, 40 °C): A | stable crystal form ([1]; 5% water in methanol, 45 °C): A | stable crystal form ([1]; 5% water in methanol, 60 °C): A | stable crystal form ([1]; 7.5% water in methanol, 5 °C): H | stable crystal form ([1]; 7.5% water in methanol, 15 °C): H | stable crystal form ([1]; 10% water in methanol, 5 °C): H | stable crystal form ([1]; 10% water in methanol, 15 °C): H | stable crystal form ([1]; 10% water in methanol, 20 °C): U | stable crystal form ([1]; 10% water in methanol, 30 °C): U | stable crystal form ([1]; 10% water in methanol, 35 °C): A | stable crystal form ([1]; 10% water in methanol, 40 °C): A | stable crystal form ([1]; 10% water in methanol, 45 °C): A | stable crystal form ([1]; 10% water in methanol, 60 °C): A | stable crystal form ([1]; 12.5% water in methanol, 5 °C): H | stable crystal form ([1]; 15% water in methanol, 5 °C): H | stable crystal form ([1]; 15% water in methanol, 15 °C): H | stable crystal form ([1]; 15% water in methanol, 50 °C): H | stable crystal form ([1]; 15% water in methanol, 60 °C): A | stable crystal form ([1]; 20% water in methanol, 20 °C): H | stable crystal form ([1]; 20% water in methanol, 30 °C): H | stable crystal form ([1]; 20% water in methanol, 35 °C): H | stable crystal form ([1]; 20% water in methanol, 40 °C): H | stable crystal form ([1]; 20% water in methanol, 45 °C): H | stable crystal form ([1]; 20% water in methanol, 60 °C): H | stable crystal form ([1]; 25% water in methanol, 50 °C): H | stable crystal form ([1]; 25% water in methanol, 60 °C): H | stable crystal form ([1]; 35% water in methanol, 60 °C): H
Compound: Cn1cc(C(=O)Nc2cccc3c2C2CCC3C2=C(Cl)Cl)c(C(F)F)n1 (racemic) [compound of formula (I), 3-difluoromethyl-1-methyl-1H-pyrazole-4-carboxylic acid (9-dichloromethylene-1,2,3,4-tetrahydro-1,4-methano-naphthalen-5-yl)-amide]

polymorphic conversion (powder X-ray diffraction) [2]: fully converted to the hydrated form | size of the crystals (microscopy) [2]: increased substantially
Compound: Cn1cc(C(=O)Nc2cccc3c2C2CCC3C2=C(Cl)Cl)c(C(F)F)n1 (stereo not drawn) [anhydrous polymorph Form 1, 3-difluoromethyl-1-methyl-1H-pyrazole-4-carboxylic acid (9-dichloromethylene-1,2,3,4-tetrahydro-1,4-methano-naphthalen-5-yl)-amide]

temperature required to dehydrate the hydrate ([1]; normal ambient relative humidities, from phase diagram (FIG. 3)): > 60 °C
Compound: Cn1cc(C(=O)Nc2cccc3c2C2CCC3C2=C(Cl)Cl)c(C(F)F)n1 (stereo not drawn) [hydrate of compound (I), 3-difluoromethyl-1-methyl-1H-pyrazole-4-carboxylic acid (9-dichloromethylene-1,2,3,4-tetrahydro-1,4-methano-naphthalen-5-yl)-amide]

From patent publication US9617219B2, “Polymorphs of 3-difluoromethyl-1-methyl-1 H-pyrazole-4-carboxylic acid (9-dichloro-methylene-1,2,3,4-tetrahydro-1,4-methano-naphthalen-5-yl)-amide” (Syngenta Participations AG, priority 2014, dated 2017)
